Key:
HCT116 = assay: MTT assay; assay type: cell-based; conditions: Homo sapiens, HCT-116, 24 h incubation
Protocol: (§1) The proliferation of colorectal cancer cells (HCT116, HT29 and Caco-2) was assessed using MTT assay as previously reported. Cells were treated with increasing concentrations of 1, 5, 10, 20, 40, 80 or 100 µM of CP hybrids 4a-j, doxorubicin, or DMSO. See Supplementary Appendix A.

HT-29 = assay: MTT assay; assay type: cell-based; conditions: Homo sapiens; HT-29, MTT assay, 24 h incubation
Protocol: as §1

Caco-2 = assay: MTT assay; assay type: cell-based; conditions: Homo sapiens; Caco-2, MTT assay, 24 h incubation
Protocol: as §1

HCT-116 = assay: NCI one-dose screen; assay type: cell-based, human; conditions: HCT-116, 10 µM; for activity at 10 µM: Homo sapiens, read-out: Growth Percent
Protocol: (§2) For screening of anticancer properties, all the developed compounds were chosen by the (NCI) for in-vitro antitumor evaluation. The assay was carried out using 59 human cancer cell lines obtained from nine tumour subpanels (breast, ovarian, melanoma, leukaemia, renal, CNS, lung, prostate, and colon cancer cell lines). Compounds were assessed at a 10 µM concentration. […] Also, hybrids 4a, 4b, 4e, 4i and 4j produced significant anti-proliferative effect in several cancer cells, particularly in leukaemia (RPMI-8226) and colon (HCT116) cells with growth percent of 47.87, −14.59, −24.56, −24.42, −15.84, −9.74, −53.36, −10.26, −31.29, and −39.51%, respectively.
(§3) The method description for NCI anticancer screening is provided in detail in the standard NCI-60 testing protocol.

RPMI-8226 = assay: NCI one-dose screen; assay type: cell-based, human; conditions: RPMI-8226, 10 µM; for activity at 10 µM: Homo sapiens, read-out: Growth Percent
Protocol: as §2, §3

NCI/ADR-RES = assay: NCI one-dose screen; assay type: cell-based; conditions: Homo sapiens, read-out: Growth Percent
Protocol: as §2, §3

SF-295 = assay: NCI one-dose screen; assay type: cell-based; conditions: Homo sapiens; SF-295, 10 µM; read-out: Growth Percent
Protocol: as §2, §3

OVCAR-4 = assay: NCI one-dose screen; assay type: cell-based; conditions: Homo sapiens; OVCAR-4, 10 µM; read-out: Growth Percent
Protocol: as §2, §3

HL-60(TB) = assay: NCI one-dose screen; assay type: cell-based; conditions: Homo sapiens, read-out: Growth Percent
Protocol: as §2, §3

SK-MEL-5 = assay: NCI one-dose screen; assay type: cell-based; conditions: Homo sapiens; SK-MEL-5, 10 µM; read-out: Growth Percent
Protocol: as §2, §3

SNB-19 = assay: NCI one-dose screen; assay type: cell-based; conditions: Homo sapiens; SNB-19, 10 µM; read-out: Growth Percent
Protocol: as §2, §3

A498 = assay: NCI one-dose screen; assay type: cell-based; conditions: Homo sapiens; A498, 10 µM; read-out: Growth Percent
Protocol: as §2, §3

SK-OV-3 = assay: NCI one-dose screen; assay type: cell-based; conditions: Homo sapiens; SK-OV-3, 10 µM; read-out: Growth Percent
Protocol: as §2, §3

CAKI-1 = assay: NCI one-dose screen; assay type: cell-based; conditions: Homo sapiens; CAKI-1, 10 µM; read-out: Growth Percent
Protocol: as §2, §3

RXF 393 = assay: NCI one-dose screen; assay type: cell-based; conditions: Homo sapiens; RXF 393, 10 µM; read-out: Growth Percent
Protocol: as §2, §3

SW-620 = assay: NCI one-dose screen; assay type: cell-based; conditions: Homo sapiens; SW-620, 10 µM; read-out: Growth Percent
Protocol: as §2, §3

EKVX = assay: NCI one-dose screen; assay type: cell-based; conditions: Homo sapiens, read-out: Growth Percent
Protocol: as §2, §3

TK-10 = assay: NCI one-dose screen; assay type: cell-based; conditions: Homo sapiens; TK-10, 10 µM; read-out: Growth Percent
Protocol: as §2, §3

UACC-257 = assay: NCI one-dose screen; assay type: cell-based; conditions: Homo sapiens; UACC-257, 10 µM; read-out: Growth Percent
Protocol: as §2, §3

HOP-92 = assay: NCI one-dose screen; assay type: cell-based; conditions: Homo sapiens; HOP-92, 10 µM; read-out: Growth Percent
Protocol: as §2, §3

LOX IMVI = assay: NCI one-dose screen; assay type: cell-based; conditions: Homo sapiens, read-out: Growth Percent
Protocol: as §2, §3

DU-145 = assay: NCI one-dose screen; assay type: cell-based; conditions: Homo sapiens; DU-145, 10 µM; read-out: Growth Percent
Protocol: as §2, §3

SR = assay: NCI one-dose screen; assay type: cell-based; conditions: Homo sapiens, read-out: Growth Percent
Protocol: as §2, §3

SN12C = assay: NCI one-dose screen; assay type: cell-based; conditions: Homo sapiens, read-out: Growth Percent
Protocol: as §2, §3

OVCAR-5 = assay: NCI one-dose screen; assay type: cell-based; conditions: Homo sapiens; OVCAR-5, 10 µM; read-out: Growth Percent
Protocol: as §2, §3

SF-539 = assay: NCI one-dose screen; assay type: cell-based; conditions: Homo sapiens; SF-539, 10 µM; read-out: Growth Percent
Protocol: as §2, §3

MCF7 = assay: NCI one-dose screen; assay type: cell-based; conditions: Homo sapiens; MCF7, 10 µM; read-out: Growth Percent
Protocol: as §2, §3

KM12 = assay: NCI one-dose screen; assay type: cell-based; conditions: Homo sapiens; KM12, 10 µM; read-out: Growth Percent
Protocol: as §2, §3

SK-MEL-2 = assay: NCI one-dose screen; assay type: cell-based; conditions: Homo sapiens; SK-MEL-2, 10 µM; read-out: Growth Percent
Protocol: as §2, §3

ACHN = assay: NCI one-dose screen; assay type: cell-based; conditions: Homo sapiens, read-out: Growth Percent
Protocol: as §2, §3

OVCAR-3 = assay: NCI one-dose screen; assay type: cell-based; conditions: Homo sapiens; OVCAR-3, 10 µM; read-out: Growth Percent
Protocol: as §2, §3

HOP-62 = assay: NCI one-dose screen; assay type: cell-based; conditions: Homo sapiens; HOP-62, 10 µM; read-out: Growth Percent
Protocol: as §2, §3

MOLT-4 = assay: NCI one-dose screen; assay type: cell-based; conditions: Homo sapiens; MOLT-4, 10 µM; read-out: Growth Percent
Protocol: as §2, §3

OVCAR-8 = assay: NCI one-dose screen; assay type: cell-based; conditions: Homo sapiens; OVCAR-8, 10 µM; read-out: Growth Percent
Protocol: as §2, §3

SNB-75 = assay: NCI one-dose screen; assay type: cell-based; conditions: Homo sapiens; SNB-75, 10 µM; read-out: Growth Percent
Protocol: as §2, §3

HT29 = assay: NCI one-dose screen; assay type: cell-based; conditions: Homo sapiens, HT-29; HT29, 10 µM; read-out: Growth Percent
Protocol: as §2, §3

Row | SMILES | IC50 (HCT116) | IC50 (HT-29) | IC50 (Caco-2) | activity at 10 µM (HCT-116) | activity at 10 µM (RPMI-8226) | activity at 10 µM (NCI/ADR-RES) | activity at 10 µM (SF-295) | activity at 10 µM (OVCAR-4) | activity at 10 µM (HL-60(TB)) | activity at 10 µM (SK-MEL-5) | activity at 10 µM (SNB-19) | activity at 10 µM (A498) | activity at 10 µM (SK-OV-3) | activity at 10 µM (CAKI-1) | activity at 10 µM (RXF 393) | activity at 10 µM (SW-620) | activity at 10 µM (EKVX) | activity at 10 µM (TK-10) | activity at 10 µM (UACC-257) | activity at 10 µM (HOP-92) | further results
1 | COc1ccc(/C=C/C(=O)c2ccc(-n3cc(CN4CCN(c5cc6c(cc5F)c(=O)c(C(=O)O)cn6C5CC5)CC4)nn3)cc2)cc1 [Compound 4g, (E)-1-Cyclopropyl-6-fluoro-7-(4-((1-(4-(3-(4-methoxyphenyl)acryloyl)phenyl)-1H-1,2,3-triazol-4-yl)methyl)piperazin-1-yl)-4-oxo-1,4-dihydroquinoline-3-carboxylic acid] | 6.11 ± 1.03 µM | 34 ± 3.69 µM | 11.4 ± 3.19 µM | 2.68% | 11.5% | 94.8% | 90.7% | 94.4% | 99% | 81.6% | 84.1% | 60.5% | 84.6% | 75.5% | 75% | 81.7% | 96.6% | 92.4% | 91.7% | 84.8% | activity at 10 µM (LOX IMVI): 56.9%; activity at 10 µM (DU-145): 90.8%; activity at 10 µM (SR): 13.1%; activity at 10 µM (SN12C): 58.2%; activity at 10 µM (OVCAR-5): 100%; activity at 10 µM (SF-539): 92.8%; activity at 10 µM (MCF7): 51.2%; activity at 10 µM (KM12): 86.4%; activity at 10 µM (SK-MEL-2): 99.1%; activity at 10 µM (ACHN): 89.9%; activity at 10 µM (OVCAR-3): 90.5%; activity at 10 µM (HOP-62): 85.5%; activity at 10 µM (MOLT-4): 81.7%; activity at 10 µM (OVCAR-8): 83.6%; activity at 10 µM (SNB-75): 91.6%; activity at 10 µM (HT29): 78.2%
2 | O=C(/C=C/c1cccc(Cl)c1)c1ccc(-n2cc(CN3CCN(c4cc5c(cc4F)c(=O)c(C(=O)O)cn5C4CC4)CC3)nn2)cc1 [Compound 4b, (E)-7-(4-((1–(4-(3-(3-chlorophenyl)acryloyl)phenyl)-1H-1,2,3-triazol-4-yl)methyl)piperazin-1-yl)-1-cyclopropyl-6-fluoro-4-oxo-1,4-dihydroquinoline-3-carboxylic acid] | 4.81 ± 1.21 µM | 42.9 ± 5.14 µM | 24.4 ± 3.07 µM | -53.4% | -14.6% | 94.2% | 80.2% | 62.9% | 90.3% | 78.7% | 53.8% | 70.8% | 72.3% | 52.5% | 70.8% | 85.4% | 85% | 84.9% | 87.7% | 79.3% | Growth Percent (HCT-116): -53.36%; Growth Percent (RPMI-8226): -14.59%; activity at 10 µM (LOX IMVI): 36.9%; activity at 10 µM (DU-145): 77.5%; activity at 10 µM (SR): 14.1%; activity at 10 µM (SN12C): 37.6%; activity at 10 µM (OVCAR-5): 84.7%; activity at 10 µM (SF-539): 60.1%; activity at 10 µM (MCF7): 37.6%; activity at 10 µM (KM12): 29.9%; activity at 10 µM (SK-MEL-2): 93%; activity at 10 µM (ACHN): 77.7%; activity at 10 µM (OVCAR-3): 57.3%; activity at 10 µM (HOP-62): 67.7%; activity at 10 µM (MOLT-4): 68.2%; activity at 10 µM (OVCAR-8): 42.7%; activity at 10 µM (SNB-75): 89.2%; activity at 10 µM (HT29): 53.3%
3 | O=C(/C=C/c1ccccc1)c1ccc(-n2cc(CN3CCN(c4cc5c(cc4F)c(=O)c(C(=O)O)cn5C4CC4)CC3)nn2)cc1 [Compound 4a, (E) 7-(4-((1–(4-Cinnamoylphenyl)-1H-1,2,3-triazol-4-yl)methyl)piperazin-1-yl)-1-cyclopropyl-6-fluoro-4-oxo-1,4-dihydroquinoline-3-carboxylic acid] | 3.57 ± 0.59 µM | 22.4 ± 3.25 µM | 8.39 ± 2.46 µM | -9.74% | 47.9% | 87.9% | 95.9% | 102% | 99% | 84.3% | 98.2% | 76.7% | 84.9% | 87.8% | 72% | 90% | 88.5% | 103% | 96.7% | 79.9% | Growth Percent (HCT-116): -9.74%; activity at 10 µM (LOX IMVI): 55.4%; activity at 10 µM (DU-145): 104%; activity at 10 µM (SR): 99.6%; activity at 10 µM (SN12C): 103%; activity at 10 µM (OVCAR-5): 103%; activity at 10 µM (SF-539): 92.6%; activity at 10 µM (MCF7): 72.9%; activity at 10 µM (KM12): 84.9%; activity at 10 µM (SK-MEL-2): 96.4%; activity at 10 µM (ACHN): 96.7%; activity at 10 µM (OVCAR-3): 90.4%; activity at 10 µM (HOP-62): 78.7%; activity at 10 µM (MOLT-4): 102%; activity at 10 µM (OVCAR-8): 95.1%; activity at 10 µM (SNB-75): 92.7%; activity at 10 µM (HT29): 90.8%
